Holding throughout (conditions): 100 uM
Assay [1] deals with SAS (head & neck cancer). Description: Cell uptake assay, SAS cells. Format: cell-based, human. As to the method: (§1) • 1.1.1 15 mL of cell culture medium was placed into a T225 flask. • 1.1.2 The flask was placed in a humidified 37° C., 5% CO2 incubator for 15 minutes to allow medium to equilibrate to the proper pH and temperature. • 1.1.3 The vial was removed from liquid nitrogen and thawed rapidly by placing at 37° C. in a water bath with gentle agitation for 1-2 minutes and then decontaminated by wiping with 70% ethanol before opening in a Class II biological safety cabinet. • 1.1.4 The vial contents were transferred dropwise into 10 mL of cell culture medium in a sterile 15 mL conical tube. • 1.1.5 The cells were centrifuged at 1,300 rpm for 5 minutes. • 1.1.6 The supernatant was aspirated and re-suspended the cells and transferred the cells into T225 flask containing cell culture medium.
(§2) • 1.2.1 Culture medium were renewed every 2-3 days. • 1.2.2 Keep the flask in a humidified 37° C., 5% CO2 incubator
(§3) • Cells were harvested and diluted in culture medium to the designated concentration. Then the cells were cultured in T25 flasks, one T25 flask for one sample. 2.2 Formulation of test compounds • 2.2.1 L-Boronophenylalanine (L-BPA, 4-boron-L-phenylalanine, Purity: 95%, Chemical formula: C9H12BNO4, MW: 209.01, CAS: 76410-58-7) and fructose were dissolved in PBS at a molar ratio of 1:5, and then a 1.27 M ratio of 1 N NaOH is added. The mixture was stirred until L-BPA is completely dissolved, and the pH value was titrated to 7.2-7.4 with 1 N HC1. • 2.2.2 For test compounds other than BPA, stock solutions were prepared of each compound in DMSO or fructose formulation at a concentration of 20 mM (such that final % DMSO in the cellular assay medium=0.5%) 2.3 Compound treatment • 2.3.1 The cells were seeded overnight (12-18 hours) to allow the cells to adhere well. • 2.3.2 The stock solution of each compound was added to each T25 flask such that the final concentration for each compound is 100 uM (0.1 mM). • 2.3.3 The flasks were placed in a 37° C., 5% CO2 incubator for 1 hour, 4 hours and 24 hours. • 2.3.4 After treatment for 1 hour, 4 hour, and 24 hours, the cells were collected by using 0.25% Trypsin with 0.53 mM EDTA. • 2.3.5 Centrifuged at 1,300 rpm for 5 min to collect cell pellets.

Assay [2] deals with B16F10. Kind of assay: Cell uptake assay, B16F10 cells. In kind it is cell-based, mouse. As to the method:
as §1, §2, §3

Assay [3] relates to NIH-3T3. Description: Cell uptake assay, NIH-3T3 cells. Format: cell-based, mouse. As to the method:
as §1, §2, §3

For assay [4], the system named is U87-MG (glioblastoma). Description: Cell uptake assay, U87-MG cells. In kind it is cell-based, human. As to the method: as §1, §2, §3

Structures are written as SMILES.

Data on two compounds can be found in patent US20240067665A1, “SMALL MOLECULES FOR BORON NEUTRON CAPTURE THERAPY” (Aviko Radiopharmaceuticals, LLC, priority 2022, published 2024).

Consider `N[C@@H](Cc1ccc(C2(B(O)O)CC2)cc1)C(=O)O` [compound 15, (2S)-2-amino-3-{4-[1-(dihydroxyboranyl)cyclopropyl]phenyl}propanoic acid], for which the entries for the “Cell uptake, Mean, SAS” value in assay [1] (1 hour), in assay [1] (4 hours) and in assay [1] (24 hours) were 491 ng/10^6 cell, 283 ng/10^6 cell and 419 ng/10^6 cell, respectively. The entries for the “Cell uptake, Mean, B16F10” value in assay [2] (1 hour) and in assay [2] (24 hours) were 193 ng/10^6 cell and 458 ng/10^6 cell, respectively. For the same compound, the “Cell uptake, Mean, NIH-3T3” value turned out to be 223 ng/10^6 cell in assay [3] (1 hour), 185 ng/10^6 cell in assay [3] (4 hours) and 169 ng/10^6 cell in assay [3] (24 hours). The “Cell uptake, Mean, U87-MG” value in assay [4] (1 hour) is given as 225 ng/10^6 cell; in assay [4] (4 hours), 337 ng/10^6 cell; in assay [4] (24 hours), 269 ng/10^6 cell.
Regarding `NC(Cc1ccc(CCB(O)O)cc1F)C(=O)O` (single isomer, unassigned) [compound 8, (S*)-2-amino-3-(4-(2-boronoethyl)-2-fluorophenyl)propanoic acid], the figures for the “Cell uptake, Mean, SAS” value in assay [1] (1 hour), in assay [1] (4 hours) and in assay [1] (24 hours) were 44.6 ng/10^6 cell, 66.7 ng/10^6 cell and 359 ng/10^6 cell, respectively. For the same compound, the “Cell uptake, Mean, B16F10” value in assay [2] (1 hour) was determined as 26.9 ng/10^6 cell; in assay [2] (4 hours), 31.4 ng/10^6 cell. The “Cell uptake, Mean, NIH-3T3” value in assay [3] (1 hour) is on record as 14.7 ng/10^6 cell; in assay [3] (4 hours), 26.4 ng/10^6 cell. For the same compound, the figures for the “Cell uptake, Mean, U87-MG” value in assay [4] (1 hour), in assay [4] (4 hours) and in assay [4] (24 hours) were 16.7 ng/10^6 cell, 31.1 ng/10^6 cell and 16.3 ng/10^6 cell, respectively.
